Measurements taken from patent US20050171358A1 (priority 2002, published 2005).

Legend:
[1] = test system: Pyricularia oryzae; type: in vivo; settings: 200 ppm spray on rice (Koshihikari, 3 leaf stage), inoculated next day; lesion numbers on third leaves after 7 days in green house, graded by Table 5
[2] = test system: Colletotrichum lagenarium; settings: 200 ppm spray on cucumber (3 leaf stage), inoculated next day; lesion numbers on first and second leaves after 7 days in green house, graded by Table 5

Compound: COc1ccc(C(=O)NCc2cc(/C=C/C(C)C)no2)cc1
- Evaluation (effect for rice blast) [1]: 4 (1˜5)
- Evaluation (effect for cucumber anthracnose) [2]: 4 (1˜5)

Compound: O=C(NCc1cc(Cc2ccccc2)no1)OC1CCCCC1
- Evaluation (effect for rice blast) [1]: 4 (1˜5)

Compound: CC(C)c1cc(CNC(=O)Oc2ccccc2)on1 [I-4]
- Evaluation (effect for rice blast) [1]: 5 (0)
- Evaluation (effect for cucumber anthracnose) [2]: 5 (0)

Compound: O=C(NCc1cc(C2CCCCC2)no1)Oc1ccccc1 [I-6, phenyl[(3-cyclohexyl-5-isoxazolyl)methyl]carbamate]
- Evaluation (effect for rice blast) [1]: 5 (0)
- Evaluation (effect for cucumber anthracnose) [2]: 5 (0)

Compound: CC(C)Cc1cc(CNC(=O)Oc2ccccc2)on1 [I-8, phenyl [(3-isobutyl-5-isoxazolyl)methyl]carbamate]
- Evaluation (effect for rice blast) [1]: 3 (6˜10)
- Evaluation (effect for cucumber anthracnose) [2]: 3 (6˜10)

Compound: Cc1ccc(-c2cc(CNC(=O)Oc3ccccc3)on2)cc1 [I-25, phenyl{[3-(4-tolyl)-5-isoxazolyl)methyl]carbamate]
- Evaluation (effect for rice blast) [1]: 5 (0)

Compound: COc1ccc(-c2cc(CNC(=O)Oc3ccccc3)on2)cc1 [I-26, phenyl{[3-(4-methoxyphenyl)-5-isoxazolyl]methyl}carbamate]
- Evaluation (effect for rice blast) [1]: 5 (0)
- Evaluation (effect for cucumber anthracnose) [2]: 5 (0)

Compound: O=C(NCc1cc(-c2ccc(F)cc2)no1)Oc1ccccc1 [I-27, phenyl{[3-(4-fluorophenyl)-5-isoxazolyl)methyl]carbamate]
- Evaluation (effect for rice blast) [1]: 5 (0)
- Evaluation (effect for cucumber anthracnose) [2]: 5 (0)

Compound: O=C(NCc1cc(-c2ccccc2Cl)no1)Oc1ccccc1 [I-28, phenyl{[3-(2-chlorophenyl)-5-isoxazolyl]methyl}carbamate]
- Evaluation (effect for rice blast) [1]: 4 (1˜5)
- Evaluation (effect for cucumber anthracnose) [2]: 5 (0)

Compound: O=C(NCc1cc(-c2cccc(Cl)c2)no1)Oc1ccccc1 [I-29, phenyl{[3-(3-chlorophenyl)-5-isoxazolyl)methyl]carbamate]
- Evaluation (effect for rice blast) [1]: 5 (0)
- Evaluation (effect for cucumber anthracnose) [2]: 5 (0)

Compound: O=C(NCc1cc(-c2ccc(Cl)cc2)no1)Oc1ccccc1 [I-30, phenyl{[3-(4-chlorophenyl)-5-isoxazolyl)methyl]carbamate]
- Evaluation (effect for rice blast) [1]: 5 (0)
- Evaluation (effect for cucumber anthracnose) [2]: 5 (0)

Compound: O=C(NCc1cc(-c2ccccn2)no1)Oc1ccccc1 [I-31, phenyl{[3-(2-pyrizyl)-5-isoxazolyl]methyl}carbamate]
- Evaluation (effect for rice blast) [1]: 4 (1˜5)

Compound: O=C(NCc1cc(-c2cccs2)no1)Oc1ccccc1 [I-32, phenyl{[3-(2-thienyl)-5-isoxazolyl)methyl]carbamate]
- Evaluation (effect for rice blast) [1]: 5 (0)

Compound: O=C(NCc1cc(-c2ccco2)no1)Oc1ccccc1 [I-33, phenyl{[3-(2-furyl)-5-isoxazolyl)methyl]carbamate]
- Evaluation (effect for rice blast) [1]: 5 (0)
- Evaluation (effect for cucumber anthracnose) [2]: 5 (0)

Compound: O=C(NCc1cc(Cc2ccccc2)no1)Oc1ccccc1 [I-38, phenyl[(3-benzyl-5-isoxazolyl)methyl]carbamate]
- Evaluation (effect for rice blast) [1]: 5 (0)
- Evaluation (effect for cucumber anthracnose) [2]: 5 (0)

Compound: O=C(NCc1cc(-c2ccccc2)no1)OCc1ccccc1 [I-41, benzyl [(3-phenyl-5-isoxazolyl)methyl]carbamate]
- Evaluation (effect for rice blast) [1]: 3 (6˜10)
- Evaluation (effect for cucumber anthracnose) [2]: 4 (1˜5)

Compound: CC(C)(NC(=O)NCc1cc(-c2ccccc2)no1)c1ccccc1 [I-45]
- Evaluation (effect for rice blast) [1]: 4 (1˜5)
- Evaluation (effect for cucumber anthracnose) [2]: 4 (1˜5)

Compound: CC(C)c1cc(CNC(=O)C(C)c2ccccc2)on1 (centres unmarked) [I-47, N-[(3-isopropyl-5-isoxazolyl)methyl]-2-phenylpropanamide]
- Evaluation (effect for rice blast) [1]: 4 (1˜5)
- Evaluation (effect for cucumber anthracnose) [2]: 4 (1˜5)

Compound: O=C(Cc1ccccc1)NCc1cc(-c2ccccc2)no1 [I-48, N-[(3-phenyl-5-isoxazolyl)methyl]-2-phenylethanamide]
- Evaluation (effect for rice blast) [1]: 4 (1˜5)

Compound: O=C(NCc1cc(-c2ccccc2)no1)C(Cl)c1ccccc1 (centres unmarked) [I-49, N-[(3-phenyl-5-isoxazolyl)methyl]-2-chloro-2-phenylethanamide]
- Evaluation (effect for rice blast) [1]: 3 (6˜10)

Compound: CC(C)c1cc(CNC(=O)Cc2ccccc2)on1 [I-63, N-[(3-isopropyl-5-isoxazolyl)methyl]phenylacetamide]
- Evaluation (effect for rice blast) [1]: 2 (11˜20)

Compound: CC(C)Cc1cc(CNC(=O)Cc2ccccc2)on1 [I-64, N-[(3-isobutyl-5-isoxazolyl)methyl]phenylacetamide]
- Evaluation (effect for rice blast) [1]: 2 (11˜20)
- Evaluation (effect for cucumber anthracnose) [2]: 3 (6˜10)

Compound: Cc1ccc(-c2cc(CNC(=O)Nc3ccccc3)on2)cc1 [II-2, 3-{[3-(4-tolyl)-5-isoxazolyl]methyl}-1-phenyl urea]
- Evaluation (effect for rice blast) [1]: 5 (0)

Compound: CC(C)c1cc(CNC(=O)Nc2ccccc2)on1 [II-3, 1-[(3-isopropyl-5-isoxazolyl)methyl]-3-phenylurea]
- Evaluation (effect for rice blast) [1]: 3 (6˜10)

Compound: O=C(NCc1cc(-c2ccccc2)no1)NC1CCCCC1 [II-7, 3-[(3-phenyl-5-isoxazolyl)methyl]-1-cyclohexyl urea]
- Evaluation (effect for rice blast) [1]: 5 (0)
- Evaluation (effect for cucumber anthracnose) [2]: 5 (0)

Compound: Cc1ccc(-c2cc(CNC(=O)NC3CCCCC3)on2)cc1 [II-9, 1-{[3-(4-tolyl)-5-isoxazolyl]methyl}-3-cyclohexylurea]
- Evaluation (effect for rice blast) [1]: 5 (0)
- Evaluation (effect for cucumber anthracnose) [2]: 5 (0)

Compound: Cc1ccc(-c2cc(CNC(=O)NC3CCCC3)on2)cc1 [II-10, 3-[3-(4-tolyl)-5-isoxazolyl]methyl-1-cyclopentylurea]
- Evaluation (effect for rice blast) [1]: 4 (1˜5)
- Evaluation (effect for cucumber anthracnose) [2]: 5 (0)

Compound: CN(C(=O)NCc1cc(-c2ccccc2)no1)c1ccccc1 [II-12, 3-[(3-phenyl-5-isoxazolyl]methyl]-1-methyl-1-phenyl urea]
- Evaluation (effect for rice blast) [1]: 4 (1˜5)
- Evaluation (effect for cucumber anthracnose) [2]: 4 (1˜5)

Compound: O=C(NCc1cc(Cc2ccccc2)no1)NC1CCCCC1 [II-13, 1-[(3-benzyl-5-isoxazolyl)methyl]-3-cyclohexylurea]
- Evaluation (effect for rice blast) [1]: 5 (0)
- Evaluation (effect for cucumber anthracnose) [2]: 5 (0)

Compound: O=C(NCc1cc(Cc2ccccc2)no1)NC1CCCC1 [II-14, 1-[(3-benzyl-5-isoxazolyl)methyl]-3-cyclopentylurea]
- Evaluation (effect for rice blast) [1]: 4 (1˜5)
- Evaluation (effect for cucumber anthracnose) [2]: 5 (0)

Compound: CC(C)c1cc(CNC(=O)NC2CCCCC2)on1 [II-15, 1-[(3-isopropyl-5-isoxazolyl)methyl]-3-cyclohexylurea]
- Evaluation (effect for rice blast) [1]: 3 (6˜10)
- Evaluation (effect for cucumber anthracnose) [2]: 4 (1˜5)

Compound: O=C(NCc1cc(-c2ccccc2)no1)Nc1ccccc1Cl [II-48, 1-[(3-phenyl-5-isoxazolyl)methyl]-3-(2-chlorophenyl)urea]
- Evaluation (effect for rice blast) [1]: 3 (6˜10)
- Evaluation (effect for cucumber anthracnose) [2]: 4 (1˜5)

Compound: O=C(NCc1cc(-c2ccccc2)no1)Nc1cccc(Cl)c1 [II-49, 1-[(3-phenyl-5-isoxazolyl)methyl]-3-(3-chlorophenyl)urea]
- Evaluation (effect for rice blast) [1]: 4 (1˜5)

Compound: O=C(NCc1cc(-c2ccccc2)no1)Nc1ccc(Cl)cc1 [II-50, 1-[(3-phenyl-5-isoxazolyl)methyl]-3-(4-chlorophenyl)urea]
- Evaluation (effect for rice blast) [1]: 5 (0)

Compound: O=C(NCc1cc(-c2ccccc2)no1)Nc1ccccn1 [II-99, 1-[(3-phenyl-5-isoxazolyl)methyl]-3-(2-pyridyl)urea]
- Evaluation (effect for rice blast) [1]: 3 (6˜10)

Compound: O=C(NCc1cc(-c2ccccc2)no1)Nc1cccnc1 [II-100, 1-[(3-phenyl-5-isoxazolyl)methyl]-3-(3-pyridyl)urea]
- Evaluation (effect for rice blast) [1]: 4 (1˜5)
- Evaluation (effect for cucumber anthracnose) [2]: 4 (1˜5)

Compound: O=C(NCc1cc(COc2ccccc2)no1)NC1CCCCC1 [II-104, 3-(3-phenoxymethyl-5-isoxazolyl)methyl-1-cyclohexylurea]
- Evaluation (effect for rice blast) [1]: 5 (0)
- Evaluation (effect for cucumber anthracnose) [2]: 5 (0)

Compound: O=C(NCc1cc(COc2ccccc2)no1)NC1CCCC1 [II-106, 3-(3-phenoxymethyl-5-isoxazolyl)methyl-1-cyclopentylurea]
- Evaluation (effect for rice blast) [1]: 3 (6˜10)
- Evaluation (effect for cucumber anthracnose) [2]: 2 (11˜20)

Compound: CC(=O)Nc1ccc(-c2cc(CNC(=O)c3ccc(C)cc3)on2)cc1 [III-57, N-{[3-(4-acetamidophenyl)-5-isoxazolyl]methyl}-4-methylbenzamide]
- Evaluation (effect for rice blast) [1]: 2 (11˜20)

Compound: Cc1ccc(-c2cc(CNC(=O)N3CCCCC3)on2)cc1 [III-203]
- Evaluation (effect for rice blast) [1]: 2 (11˜20)

Compound: CC1C(Cl)(Cl)C1(C)C(=O)NCc1cc(-c2ccccc2)no1 (centres unmarked) [III-212]
- Evaluation (effect for rice blast) [1]: 2 (11˜20)

Compound: CC(NC(=O)C1(C)C(C)C1(Cl)Cl)c1cc(-c2ccccc2)no1 (centres unmarked) [III-213, N-[1-(3-phenyl-5-isoxazolyl)ethyl]-2,2-dichloro-1,3-dimethylcyclopropanecarboxamide]
- Evaluation (effect for rice blast) [1]: 3 (6˜10)

Compound: CCc1ccc(C(=O)NCc2cc(Cc3ccccc3)no2)cc1 [IV-6, N-[(3-benzyl-5-isoxazolyl)methyl]-4-ethylbenzamide]
- Evaluation (effect for rice blast) [1]: 5 (0)

Compound: CS(=O)(=O)c1ccc(C(=O)NCc2cc(Cc3ccccc3)no2)cc1 [IV-8, N-[(3-benzyl-5-isoxazolyl)methyl]-4-methanesulfonylbenzamide]
- Evaluation (effect for rice blast) [1]: 3 (6˜10)

Compound: COc1ccc(C(=O)NCc2cc(COc3ccccc3C#N)no2)cc1 [IV-51, N-{[3-(2-cyanophenyl)oxymethyl-5-isoxazolyl]methyl}-4-methoxybenzamide]
- Evaluation (effect for rice blast) [1]: 2 (11˜20)

Compound: COc1ccc(C(=O)NCc2cc(COc3cccnc3)no2)cc1 [IV-91, N-{[3-(3-pyridyl)oxymethyl-5-isoxazolyl]methyl}-4-methoxybenzamide]
- Evaluation (effect for rice blast) [1]: 3 (6˜10)

Compound: COc1ccc(C(=O)NCc2cc(C(=O)c3ccccc3)no2)cc1 [IV-98, N-[(3-benzoyl-5-isoxazolyl)methyl]-4-methoxybenzamide]
- Evaluation (effect for rice blast) [1]: 2 (11˜20)

Compound: COc1ccc(C(=O)NCc2cc(C(=O)Nc3ccc(Cl)cc3)no2)cc1 [IV-106, N-{[3-(4-chlorophenyl)aminocarbonyl-5-isoxazolyl]methyl}-4-methoxybenzamide]
- Evaluation (effect for rice blast) [1]: 2 (11˜20)
